Laboratory results: US12016939B2, “Skin treatment methods and compositions for transdermal delivery of active agents” (Topix Pharmaceuticals, Inc., priority 2020, dated 2024)

Legend:
[1] = test system: photoaged females; experiment: Investigator efficacy: facial skin appearance parameters graded on 5-point ordinal scale; format: in vivo, human; settings: longitudinal intragroup
Description: (§1) The dermatologist-investigator and subjects assessed the following facial efficacy parameters: overall severity of photodamage, dryness, lack of tactile smoothness, lack of visual smoothness, lack of softness, lack of luminosity, lack of radiance, lack of firmness, poor skin texture, fine facial wrinkles, crow's feet, dyschromia, and crepey cheek skin texture. All assessments were graded on a 5-point ordinal scale (0=none, 1=minimal, 2=mild, 3=moderate, 4=severe). […] The investigator and subjects referred to baseline images (front, right and left side images) of the subjects in completing this evaluation.
(§2) Along with descriptive statistics (means, standard deviations, and percentages), investigator ordinal nonparametric data was analyzed using the Wilcoxon signed rank test and sign test for paired comparison at different time points within and between groups. Change was considered significant at a p-value of less than or equal to 0.05.
The investigator graded facial skin appearance parameters using a 5-point ordinal scale (0=none, 1=minimal, 2=mild, 3=moderate, 4=severe) at baseline (visit 1), week 4 (visit 2), and week 8 (visit 3), and week 12 (visit 4).

[2] = test system: photoaged females; experiment: Subject efficacy: self-assessed photodamage parameters, 5-point ordinal scale; format: in vivo, human
Description: as §1, §2
Subjects assessed their skin appearance across various photodamage parameters using a 5-pointordinal scale (0=none, 1=minimal, 2=mild, 3=moderate, 4=severe) at baseline, week 4, week 8, and week 12.

[3] = test system: photoaged females; experiment: Subject overall clinical improvement from baseline, 5-point scale; format: in vivo, human; settings: after 12 weeks; scale 1=much improved to 5=worse
Description: as §1

[4] = test system: photoaged females; set-up: species or system human; settings: in vivo
Description: Clinical photography was captured at each office visit using visible light of the central, right, and left face with a VISIA CR43 camera system (Canfield Scientific, NJ). Noninvasive assessments for barrier function in the form of transepidermal water loss (TEWL) measurements were taken from the left face using Evaporimeter, Cyberderm, Broomall, PA
TEWL (Evaporimeter, Cyberderm, Broomall, PA) measurements were taken at baseline, week 8, and week 12. […] TEWL increase was 16% lower in the retinol group as compared to the tretinoin group.

[5] = test system: photoaged females; experiment: Adverse experiences and discontinuations in the clinical study
Description: A single-site, double-blind controlled comparative study enrolled 45 photoaged females ages 35-65, Fitzpatrick skin types I-IV, with moderate wrinkling. Subjects who used facial retinoids within 3 months of screening, and/or facial alpha-hydroxy acids within 1 month were excluded. Subjects were randomized 2:1 into the following groups:
The 0.25% retinal serum was used twice weekly for week 1, then every other night for week 2, then every night for weeks 3 and 4. The Test Moisturizer (Lipid Replenishing Cream, TOPIX Pharmaceuticals, Inc, Amityville, NY) was placed on top of the retinal serum at each nightly application and every morning.
Cell 2: 15 subjects applied 0.025% tretinoin cream for 4 weeks. The 0.025% tretinoin cream was used twice weekly for the week 1, then every other night for week 2, then every night for weeks 3 and 4. Test Moisturizing cream (CeraVe Moisturizing Cream, L'Oreal, NY) was placed on top of the tretinoin cream (Ortho Dermatologies, NJ) at each application and every morning.

With `CC1=C(/C=C/C(C)=C/C=C/C(C)=C/C(=O)O)C(C)(C)CCC1` [tretinoin] the “luminosity, investigator” value ([1]; week 4) was “statistically significant improvement”, the “radiance, investigator” value ([1]; week 4) was “statistically significant improvement” and the “softness, investigator” value ([1]; week 4) was “statistically significant improvement”. For the same compound, the “tactile smoothness, investigator” value ([1]; week 4) was “statistically significant improvement”, the “visual smoothness, investigator” value ([1]; week 4, retinol P=0.031) was “no significance” and the “firmness, investigator” value ([1]; week 8) was “statistical significance”. The “luminosity, investigator” value ([1]; week 8) was “statistical significance”, the “overall photoaging appearance, investigator” value ([1]; week 8) was “statistical significance” and the “radiance, investigator” value ([1]; week 8) was “statistical significance”. For the same compound, the “skin texture, investigator” value ([1]; week 8) was “statistical significance”, the “softness, investigator” value ([1]; week 8) was “statistical significance” and the “tactile smoothness, investigator” value ([1]; week 8) was “statistical significance”. The “visual smoothness, investigator” value ([1]; week 8) was “statistical significance”, the “skin dryness, investigator” value ([1]; week 8, retinol P<0.001) was “not seen” and the “subject assessed improvement, intragroup longitudinal” value ([2]; all time points) was “experienced improvement”. For the same compound, the “softness, subject” value ([2]; week 8, intragroup, retinol serum P<0.001) was “not seen until week 8”, the “most parameters, subject” value ([2]; week 12, intragroup) was “statistical significance” and the “subject overall clinical improvement from baseline, on average reported” value [3] was “much-improved”. For the same compound, the “increase in TEWL” value ([4]; female, human, 12 weeks) was 104%, the “barrier damage (TEWL), intragroup” value [4] was “induced barrier damage” and the “subjects discontinued due to retinoid tolerability issues” value ([5]; 12-week study, Cell 1 30 subjects, Cell 2 15 subjects) was “one”. The serious adverse events ([5]; during the conduct of the study) was “No serious adverse events”.
